Results taken from publication PMC9611048, “Rapid Simultaneous Determination of Three Synthetic Cannabinoids in Urine and Plasma of Rats Using Ultra-High Performance Liquid Chromatography Tandem Mass Spectrometry” (Toxics, 2022).

Assays:
[1] = Determination of synthetic cannabinoids in rat plasma by LC-MS/MS after dosing; format: in vivo; conditions: 1 mg/kg tail vein injection; for concentration at 72 h: male, Sprague-Dawley, intravenous
Method: (§1) The Sprague–Dawley male rats (n = 12, 6 weeks, weighing 190–210 g) were obtained from Zhejiang Academy of Medical Sciences (Hangzhou, Zhejiang, China) and acclimatized for 1 week before exposure in the experimental room (temperature 23 ± 2 ℃, humidity 55 ± 10%, 12 h light–dark cycle). After 1-week adaptation, rats were fasted for 16 h before […]. The rats were randomly allocated to 3 groups, the JWH-122, 5F-AMB, and AMB-PUBINACA group, while the doses were all 1 mg/kg bw/day by tail vein injection. The urine samples were collected at 2 h, 4 h, 8 h, and 24 h during the initial 24 h and every 24 h during the next 48 h. The blood samples were collected from the abdominal aorta. Finally, urine samples and blood samples were obtained from each rat and stored at −80 °C. All the above animal experimental procedures were approved by the Zhejiang Center of Laboratory Animals Welfare and Ethical Review Committee (Approval ID: ZJCLA-IACUC-20100005; Hangzhou, China).
In this experiment, extraction conditions of three synthetic cannabinoids in rat plasma and urine were optimized, and the detailed parameters are shown in Table 1. Briefly, 100 μL of plasma sample was transferred into a centrifuge tube with 100 μL of acetonitrile and 500 μL of methanol and then vortexed for 6 min. Finally, the supernatant was centrifuged at 12,000 rpm for 10 min then filtered through a 0.22 μm cellulose filter. Solid phase extraction (SPE) is a common pretreatment method for the synthesis of cannabinoids in urine. The urine sample was extracted by SPE. The SPE cartridges were conditioned with 3 mL of methanol followed by 6 mL of water. Amounts of 1.6 mL of acetonitrile and water were added to 400 µL of urine, mixed uniform. […]
The separated analytes were quantified using an AB SCIEX 6500^+ quadrupole ion trap mass spectrometer (QTRAP MS) under the multiple reaction monitoring (MRM) mode with negative ion channels (Table 2). […] The HPLC-QTRAP-MS data were converted to SCIEX OS 1.4.0.18067 (SCIEX, Toronto, QUE, CA) for qualitative and quantitative analysis.

[2] = Determination of synthetic cannabinoids in rat urine by LC-MS/MS after dosing; format: in vivo; conditions: for concentration at 2 h / concentration at 4 h / concentration at 8 h / concentration at 24 h / concentration at 48 h / concentration at 72 h: male, Sprague-Dawley, intravenous; for detection window: rat, the dose for the tail vein was 1 mg/kg
Method: as §1
In this experiment, extraction conditions of three synthetic cannabinoids in rat plasma and urine were optimized, and the detailed parameters are shown in Table 1. Briefly, 100 μL of plasma sample was transferred into a centrifuge tube with 100 μL of acetonitrile and 500 μL of methanol and then vortexed for 6 min. Finally, the supernatant was centrifuged at 12,000 rpm for 10 min then filtered through a 0.22 μm cellulose filter. Solid phase extraction (SPE) is a common pretreatment method for the synthesis of cannabinoids in urine. The urine sample was extracted by SPE. The SPE cartridges were conditioned with 3 mL of methanol followed by 6 mL of water. Amounts of 1.6 mL of acetonitrile and water were added to 400 µL of urine, mixed uniform. After sample loading, the cartridges were respectively washed with 3 mL of 5% methanol, discard wash. The extract was eluted via 4 mL of methanol and evaporated to dryness under a stream of nitrogen at 40 ℃.
The AB SCIEX ExionLCTM0AD XR high-performance liquid chromatograph system coupled with the SCIEX QTRAP 6500^+ triple quadrupole/linear ion trap mass spectrometer system (AB SCIEX, Milford, MA, USA) was used for analysis. Chromatographic separation was carried out using a Waters UPLC HSS T3 (150 × 2.1 mm, 1.8 μm) column at 40 °C;. Injection volume was 1 μL. The mobile phase comprised 0.1% formic acid in water (A) and acetonitrile (B) at a flow rate of 0.3 mL/min. Gradient conditions were set as follows: 10% B (1 min), to 100% B (in 6 min), hold 100% B (4 min), to 10% B (in 0.1 min), and hold (1.9 min).
The separated analytes were quantified using an AB SCIEX 6500^+ quadrupole ion trap mass spectrometer (QTRAP MS) under the multiple reaction monitoring (MRM) mode with […] ion channels (Table 2). The mass spectrometry parameters were set as follows: curtain gas, 35 psi; collision gas, medium; ion spray voltage, 5500 V; source temperature, 550 ℃; nebulizing gas, 50 psi; heater gas, 50 psi. The HPLC-QTRAP-MS data were converted to SCIEX OS 1.4.0.18067 (SCIEX, Toronto, QUE, CA) for qualitative and quantitative analysis.

[3] = rat urine, 1 mg/kg tail vein injection
[4] = rat urine, 72 h, 1 mg/kg tail vein injection

SMILES | concentration at 72 h [1] | concentration at 2 h [2, 3] | concentration at 4 h [2, 3] | concentration at 8 h [2, 3] | concentration at 24 h [2, 3] | concentration at 48 h [2, 3] | Urine Concentration 72 h [2, 4] | detection window [2] | concentration at 72 h [2, 4] | Plasma Concentration 72 h [1]
COC(=O)C(NC(=O)c1nn(Cc2ccc(F)cc2)c2ccccc12)C(C)C (stereo not drawn) [AMB-FUBINACA, methyl 2-(1-(4-fluorobenzyl)-1Hindazole-3-carboxamido)-3-methylbutanoate] | 0.05 ng/mL | 3.38 ng/mL | 0.41 ng/mL | 0.19 ng/mL | 0.1 ng/mL | 0.03 ng/mL | not detected | 2 to 3 days | – | –
CCCCCn1cc(C(=O)c2ccc(C)c3ccccc23)c2ccccc21 [JWH-122, 4-methylnaphthalen-1-yl-(1-pentylindol-3-yl) methanone] | 0.08 ng/mL | 0.2 ng/mL | 0.12 ng/mL | 0.09 ng/mL | 0.06 ng/mL | 0.02 ng/mL | – | 2 to 3 days | 0.01 ng/mL | –
COC(=O)[C@@H](NC(=O)c1nn(CCCCCF)c2ccccc12)C(C)C [5F-AMB, methyl (1-(5-fluoropentyl)-1H-indazole-3-carbonyl)-L-valinate] | – | 8.68 ng/mL | 1.11 ng/mL | 0.72 ng/mL | 0.14 ng/mL | 0.03 ng/mL | – | 2 to 3 days | 0.01 ng/mL | not detected
